Reference: US9102678B2, “Compounds and methods for inhibiting mitotic progression” (Millennium Pharmaceuticals, Inc., priority 2004, dated 2015)
pIC50: −log10 of the molar value.

Target: T1, recombinant murine Aurora A enzyme (Mus musculus, UniProt P97477)
T1 construct: hexahistidine (His6) (N); made in house; host or cells: insect cells, baculovirus (Bac-to-Bac, Invitrogen)
Experiment: Aurora A DELFIA Kinase Assay
Assay type: biochemical
Conditions: mouse Aurora A, 250 μM ATP; threshold less than or equal to 100 nM; read-out: IC50

T1 sequence (P97477 whole entry): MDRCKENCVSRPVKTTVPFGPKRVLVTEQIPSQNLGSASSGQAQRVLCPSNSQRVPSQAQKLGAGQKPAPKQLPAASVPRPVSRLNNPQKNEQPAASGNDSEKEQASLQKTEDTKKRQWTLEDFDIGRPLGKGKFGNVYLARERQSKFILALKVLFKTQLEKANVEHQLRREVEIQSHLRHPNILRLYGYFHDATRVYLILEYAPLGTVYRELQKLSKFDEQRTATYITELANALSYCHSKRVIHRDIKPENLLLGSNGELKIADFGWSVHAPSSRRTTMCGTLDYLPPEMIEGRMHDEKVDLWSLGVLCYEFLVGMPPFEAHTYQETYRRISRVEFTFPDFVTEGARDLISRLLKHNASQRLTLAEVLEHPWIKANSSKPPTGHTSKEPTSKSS

| Structure (SMILES) | pIC50 |
| --- | --- |
| COc1cccc(F)c1C1=NCc2cnc(Nc3ccc(C(=O)N4CCN(C)CC4)cc3)nc2-c2ccc(Cl)cc21 [Compound I-233, 9-chloro-7-(2-fluoro-6-methoxyphenyl)-N-{4-[(4-methylpiperazin-1-yl)carbonyl]phenyl}-5H-pyrimido[5,4-d][2]benzazepin-2-amine] | ≥ 7.00 |
| COc1cccc(Nc2ncc3c(n2)-c2ccc(C(=O)O)cc2C(c2ccccc2F)=NC3)c1 [Compound I-256, 7-(2-fluorophenyl)-2-[(3-methoxyphenyl)amino]-5H-pyrimido[5,4-d][2]benzazepine-9-carboxylic acid] | ≥ 7.00 |
| CN(C)C1CCN(C(=O)c2cccc(Nc3ncc4c(n3)-c3ccc(Cl)cc3C(c3c(F)cccc3F)=NC4)c2)CC1 [Compound I-205, 9-chloro-7-(2,6-difluorophenyl)-N-(3-{[4-(dimethylamino)piperidin-1-yl]carbonyl}phenyl)-5H-pyrimido[5,4-d][2]benzazepin-2-amine] | ≥ 7.00 |
| CC1CN(C(=O)c2ccc(Nc3ncc4c(n3)-c3ccc(Cl)cc3C(c3ccccc3F)=NC4)cc2)CC(C)N1 (stereo not drawn) [Compound I-111, {4-[9-Chloro-7-(2-fluoro-phenyl)-5H-benzo[c]pyrimido[4,5-e]azepin-2-ylamino]-phenyl}-(3,5-dimethyl-piperazin-1-yl)-methanone] | ≥ 7.00 |
| CN(C)CCC(=O)c1cccc(Nc2ncc3c(n2)-c2ccc(Cl)cc2C(c2c(F)cccc2F)=NC3)c1 [Compound I-359, 1-(3-{[9-chloro-7-(2,6-difluorophenyl)-5H-pyrimido[5,4-d][2]benzazepin-2-yl]amino}phenyl)-3-(dimethylamino)propan-1-one] | ≥ 7.00 |
| CN(CCCN)C(=O)c1ccc(Nc2ncc3c(n2)-c2ccc(Cl)cc2C(c2c(F)cccc2F)=NC3)cc1 [Compound I-257, N-(3-aminopropyl)-4-{[9-chloro-7-(2,6-difluorophenyl)-5H-pyrimido[5,4-d][2]benzazepin-2-yl]amino}-N-methylbenzamide] | ≥ 7.00 |
| CN(C)CCCNC(=O)c1ccc(Nc2ncc3c(n2)-c2ccc(Cl)cc2C(c2ccccc2F)=NC3)cc1 [Compound I-6, 4-[9-Chloro-7-(2-fluoro-phenyl)-5H-benzo[c]pyrimido[4,5-e]azepin-2-ylamino]-N-(3-dimethylamino-propyl)-benzamide] | ≥ 7.00 |
| CN(C)C1CN(C(=O)c2ccc(Nc3ncc4c(n3)-c3ccc(Cl)cc3C(c3c(F)cccc3F)=NC4)cc2)C1 [Compound I-180, 9-Chloro-7-(2,6-difluorophenyl)-N-(4-{[3-(dimethylamino)azetidin-1-yl]carbonyl}phenyl)-5H-pyrimido[5,4-d][2]benzazepin-2-amine] | ≥ 7.00 |
| COc1cccc(F)c1C1=NCc2cnc(Nc3ccc(C(=O)N(C)CCN)cc3)nc2-c2ccc(Cl)cc21 [Compound I-265, N-(2-aminoethyl)-4-{[9-chloro-7-(2-fluoro-6-methoxyphenyl)-5H-pyrimido[5,4-d][2]benzazepin-2-yl]amino}-N-methylbenzamide] | ≥ 7.00 |
| CN(C)CCCc1cccc(Nc2ncc3c(n2)-c2ccc(Cl)cc2C(c2c(F)cccc2F)=NC3)c1 [Compound I-372, 9-chloro-7-(2,6-difluorophenyl)-N-{3-[3-(dimethylamino)propyl]phenyl}-5H-pyrimido[5,4-d][2]benzazepin-2-amine] | ≥ 7.00 |
| COc1cccc(F)c1C1=NCc2cnc(Nc3ccc(C(=O)N4CCC(N(C)C)CC4)cc3)nc2-c2ccc(Cl)cc21 [Compound I-186, {4-[9-Chloro-7-(2-fluoro-6-methoxy-phenyl)-5H-benzo[c]pyrimido-[4,5-e]azepin-2-ylamino]-phenyl}-(4-dimethylamino-piperidin-1-yl)-methanone] | ≥ 7.00 |
| C[C@@H]1CN(C(=O)c2ccc(Nc3ncc4c(n3)-c3ccc(Cl)cc3C(c3c(F)cccc3F)=NC4)cc2)CCN1 [Compound I-194, {4-[9-Chloro-7-(2,6-difluoro-phenyl)-5H-benzo[c]pyrimido[4,5-e]azepin-2-ylamino]-phenyl}-(3(R)-methyl-piperazin-1-yl)-methanone] | ≥ 7.00 |
| NC1CN(C(=O)c2ccc(Nc3ncc4c(n3)-c3ccc(Cl)cc3C(c3c(F)cccc3F)=NC4)cc2)C1 [Compound I-278, N-{4-[(3-aminoazetidin-1-yl)carbonyl]phenyl}-9-chloro-7-(2,6-difluorophenyl)-5H-pyrimido[5,4-d][2]benzazepin-2-amine] | ≥ 7.00 |
| CN(C)CC#Cc1cccc(Nc2ncc3c(n2)-c2ccc(Cl)cc2C(c2c(F)cccc2F)=NC3)c1 [Compound I-343, 9-chloro-7-(2,6-difluorophenyl)-N-{3-[3-(dimethylamino)prop-1-yn-1-yl]phenyl}-5H-pyrimido[5,4-d][2]benzazepin-2-amine] | ≥ 7.00 |
| O=C(NCCN1CCOCC1)c1ccc(Nc2ncc3c(n2)-c2ccc(Cl)cc2C(c2ccccc2Cl)=NC3)cc1 [Compound I-30, 4-[9-Chloro-7-(2-chloro-phenyl)-5H-benzo[c]pyrimido[4,5-e]azepin-2-ylamino]-N-(2-morpholin-4-yl-ethyl)-benzamide] | ≥ 7.00 |
| CN(C)C1CCN(C(=N)c2ccc(Nc3ncc4c(n3)-c3ccc(Cl)cc3C(c3c(F)cccc3F)=NC4)cc2)CC1 [Compound I-244, 9-chloro-7-(2,6-difluorophenyl)-N-{4-[[4-(dimethylamino)piperidin-1-yl](imino)methyl]phenyl}-5H-pyrimido[5,4-d][2]benzazepin-2-amine] | ≥ 7.00 |
| COc1cccc(F)c1C1=NCc2cnc(Nc3cccc(C(=O)N(C)CCCN(C)C)c3)nc2-c2ccc(Cl)cc21 [Compound I-226, 3-{[9-chloro-7-(2-fluoro-6-methoxyphenyl)-5H-pyrimido[5,4-d][2]benzazepin-2-yl]amino}-N-[3-(dimethylamino)propyl]-N-methylbenzamide] | ≥ 7.00 |
| NC1(C(=O)O)CCN(C(=O)c2ccc(Nc3ncc4c(n3)-c3ccc(Cl)cc3C(c3c(F)cccc3F)=NC4)cc2)CC1 [Compound I-295, 4-amino-1-(4-{[9-chloro-7-(2,6-difluorophenyl)-5H-pyrimido[5,4-d][2]benzazepin-2-yl]amino}benzoyl)piperidine-4-carboxylic acid] | ≥ 7.00 |
| CN(C)C1CCN(C(=O)c2cccc(Nc3ncc4c(n3)-c3ccc(Cl)cc3C(c3c(F)cccc3F)=NC4)c2)C1 (stereo not drawn) [Compound I-206, 9-chloro-7-(2,6-difluorophenyl)-N-(3-{[3-(dimethylamino)pyrrolidin-1-yl]carbonyl}phenyl)-5H-pyrimido[5,4-d][2]benzazepin-2-amine] | ≥ 7.00 |
| CNC1CN(C(=O)c2ccc(Nc3ncc4c(n3)-c3ccc(Cl)cc3C(c3c(F)cccc3F)=NC4)cc2)C1 [Compound I-234, 9-chloro-7-(2,6-difluorophenyl)-N-(4-{[3-(methylamino)azetidin-1-yl]carbonyl}phenyl)-5H-pyrimido[5,4-d][2]benzazepin-2-amine] | ≥ 7.00 |
| CC1CN(C(=O)c2ccc(Nc3ncc4c(n3)-c3ccc(Cl)cc3C(c3c(F)cccc3F)=NC4)cc2)CC(C)N1 (stereo not drawn) [Compound I-175, 9-Chloro-7-(2,6-difluorophenyl)-N-{4-[(3,5-dimethylpiperazin-1-yl)carbonyl]phenyl}-5H-pyrimido[5,4-d][2]benzazepin-2-amine] | ≥ 7.00 |
| NC1CCN(C(=O)c2cc(Nc3ncc4c(n3)-c3ccc(Cl)cc3C(c3c(F)cccc3F)=NC4)ccc2Cl)CC1 [Compound I-292, N-{3-[(4-aminopiperidin-1-yl)carbonyl]-4-chlorophenyl}-9-chloro-7-(2,6-difluorophenyl)-5H-pyrimido[5,4-d][2]benzazepin-2-amine] | ≥ 7.00 |
| Cc1csc(Nc2ncc3c(n2)-c2ccc(C(=O)O)cc2C(c2c(F)cccc2F)=NC3)n1 [Compound I-357, 7-(2,6-difluorophenyl)-2-[(4-methyl-1,3-thiazol-2-yl)amino]-5H-pyrimido[5,4-d][2]benzazepine-9-carboxylic acid] | ≥ 7.00 |
| O=C(Nc1ccc(Nc2ncc3c(n2)-c2ccc(Cl)cc2C(c2c(F)cccc2F)=NC3)cc1)C1CCNCC1 [Compound I-319, N-(4-{[9-chloro-7-(2,6-difluorophenyl)-5H-pyrimido[5,4-d][2]benzazepin-2-yl]amino}phenyl)piperidine-4-carboxamide] | ≥ 7.00 |
| NCC#Cc1ccc2c(c1)C(c1c(F)cccc1F)=NCc1cnc(Nc3ccc(C(=O)O)cc3)nc1-2 [Compound I-272, 4-{[9-(3-aminoprop-1-yn-1-yl)-7-(2,6-difluorophenyl)-5H-pyrimido[5,4-d][2]benzazepin-2-yl]amino}benzoic acid] | ≥ 7.00 |
| O=C(O)C1CNCCN1C(=O)c1ccc(Nc2ncc3c(n2)-c2ccc(Cl)cc2C(c2c(F)cccc2F)=NC3)cc1 (stereo not drawn) [Compound I-219, 1-(4-{[9-chloro-7-(2,6-difluorophenyl)-5H-pyrimido[5,4-d][2]benzazepin-2-yl]amino}benzoyl)piperazine-2-carboxylic acid] | ≥ 7.00 |
| COc1cccc(F)c1C1=NCc2cnc(Nc3ccc(C(=O)N4CCC(N(C)C)C4)cc3)nc2-c2ccc(Cl)cc21 (stereo not drawn) [Compound I-178, 9-Chloro-N-(4-{[3-(dimethylamino)pyrrolidin-1-yl]carbonyl}phenyl)-7-(2-fluoro-6-methoxyphenyl)-5H-pyrimido[5,4-d][2]benzazepin-2-amine] | ≥ 7.00 |
| COc1cccc(F)c1C1=NCc2cnc(Nc3ccc(C(=O)N(C)CCN(C)C)cc3)nc2-c2ccc(Cl)cc21 [Compound I-255, 4-{[9-chloro-7-(2-fluoro-6-methoxyphenyl)-5H-pyrimido[5,4-d][2]benzazepin-2-yl]amino}-N-[2-(dimethylamino)ethyl]-N-methylbenzamide] | ≥ 7.00 |
| CNC(=O)c1csc(Nc2ncc3c(n2)-c2ccc(Cl)cc2C(c2c(F)cccc2F)=NC3)n1 [Compound I-355, 2-{[9-chloro-7-(2,6-difluorophenyl)-5H-pyrimido[5,4-d][2]benzazepin-2-yl]amino}-N-methyl-1,3-thiazole-4-carboxamide] | ≥ 7.00 |
| C[C@@H]1CN(C(=O)c2csc(Nc3ncc4c(n3)-c3ccc(Cl)cc3C(c3c(F)cccc3F)=NC4)n2)CCN1 [Compound I-365, 9-chloro-7-(2,6-difluorophenyl)-N-(4-{[(3R)-3-methylpiperazin-1-yl]carbony}-1,3-thiazol-2-yl)-5H-pyrimido[5,4-d][2]benzazepin-2-amine] | ≥ 7.00 |
